Laboratory results reported in PubChem BioAssay AID248 (DTP/NCI, 2004).
“And” between values parts separate entries of the source, which are not always exact repeats. Equal values may be shown once. Inconclusive results and toxic doses are left out.

System: L1210 leukemia ip in BDF1 mice, survival T/C
Test: NCI In Vivo Anticancer Drug Screen. Data for tumor model L1210 Leukemia (intraperitoneal) in B6D2F1 (BDF1) mice
Conditions: endpoint: mean survival time, higher = longer survival
Procedure, shortened: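 Transplantable tumor model; survival measured in treated vs vehicle control mice. Value = treated/control.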

[1] = dose: 100.0 mg/kg/injection, schedule: Q04DX003 (ip), vehicle: saline
[2] = dose: 25.0 mg/kg/injection, schedule: Q04DX002 (ip), vehicle: Klucel (hydroxypropylcellulose) (HPC)
[3] = dose: 50.0 mg/kg/injection, schedule: Q04DX002 (ip), vehicle: Klucel (hydroxypropylcellulose) (HPC)
[4] = dose: 100.0 mg/kg/injection, schedule: Q04DX002 (ip), vehicle: Klucel (hydroxypropylcellulose) (HPC)
[5] = dose: 100.0 mg/kg/injection, schedule: Q04DX003 (ip), vehicle: Klucel (hydroxypropylcellulose) (HPC)
[6] = dose: 200.0 mg/kg/injection, schedule: Q04DX003 (ip), vehicle: Klucel (hydroxypropylcellulose) (HPC)
[7] = dose: 400.0 mg/kg/injection, schedule: Q04DX003 (ip), vehicle: Klucel (hydroxypropylcellulose) (HPC)
[8] = dose: 75.0 mg/kg/injection, schedule: Q01DX001 (ip), vehicle: saline
[9] = dose: 150.0 mg/kg/injection, schedule: Q01DX001 (ip), vehicle: saline
[10] = dose: 100.0 mg/kg/injection, schedule: Q01DX001 (ip), vehicle: saline
[11] = dose: 200.0 mg/kg/injection, schedule: Q01DX001 (ip), vehicle: saline
[12] = dose: 400.0 mg/kg/injection, schedule: Q01DX001 (ip), vehicle: saline
[13] = dose: 50.0 mg/kg/injection, schedule: Q01DX001 (ip), vehicle: saline

## CC1(c2cccs2)C(=O)N(Cl)C(=O)N1Cl (configuration not stated)
dose: 25.0 mg/kg/injection, schedule: Q01DX009 (ip), vehicle: saline
  T/C: 110 % of control
dose: 50.0 mg/kg/injection, schedule: Q01DX009 (ip), vehicle: saline
  T/C: 106 % of control
dose: 100.0 mg/kg/injection, schedule: Q01DX009 (ip), vehicle: saline
  T/C: 104 % of control
[1]
  T/C: 96 % of control

## NNC(=O)CNc1ccc(Cl)cc1
[2]
  T/C: 98 % of control
[3]
  T/C: 106 % of control
[4]
  T/C: 98 % of control and 123 % of control

## Clc1ccc(N/N=C(\Cc2ccccn2)c2ccccc2)cc1
dose: 100.0 mg/kg/injection, schedule: Q04DX003 (sc), vehicle: olive oil, sesame oil, peanut oil
  T/C: 101 % of control
dose: 200.0 mg/kg/injection, schedule: Q04DX003 (sc), vehicle: olive oil, sesame oil, peanut oil
  T/C: 110 % of control
dose: 400.0 mg/kg/injection, schedule: Q04DX003 (sc), vehicle: olive oil, sesame oil, peanut oil
  T/C: 103 % of control

## Cc1ccc(S(=O)(=O)OC2CCC(=O)CC2)cc1
dose: 75.0 mg/kg/injection, schedule: Q01DX001 (ip), vehicle: acetone
  T/C: 92 % of control
dose: 150.0 mg/kg/injection, schedule: Q01DX001 (ip), vehicle: acetone
  T/C: 97 % of control
dose: 300.0 mg/kg/injection, schedule: Q01DX001 (ip), vehicle: acetone
  T/C: 100 % of control

## Cc1ccc(C(=O)N/N=C/c2ccccc2Cl)cc1
[4]
  T/C: 101 % of control
dose: 200.0 mg/kg/injection, schedule: Q04DX002 (ip), vehicle: Klucel (hydroxypropylcellulose) (HPC)
  T/C: 93 % of control
dose: 400.0 mg/kg/injection, schedule: Q04DX002 (ip), vehicle: Klucel (hydroxypropylcellulose) (HPC)
  T/C: 104 % of control

## COc1ccc(NC(Nc2ccc(OC)cc2)C(Cl)(Cl)Cl)cc1
dose: 100.0 mg/kg/injection, schedule: Q01DX009 (ip), vehicle: other
  T/C: 90 % of control
dose: 100.0 mg/kg/injection, schedule: Q04DX003 (ip), vehicle: other
  T/C: 87 % of control
dose: 200.0 mg/kg/injection, schedule: Q01DX009 (ip), vehicle: other
  T/C: 93 % of control
dose: 200.0 mg/kg/injection, schedule: Q04DX003 (ip), vehicle: other
  T/C: 97 % of control
dose: 400.0 mg/kg/injection, schedule: Q01DX009 (ip), vehicle: other
  T/C: 123 % of control
dose: 400.0 mg/kg/injection, schedule: Q04DX003 (ip), vehicle: other
  T/C: 114 % of control

## CCC/C=C/C(C)C
dose: 100.0 mg/kg/injection, schedule: Q01DX009 (ip), vehicle: Klucel (hydroxypropylcellulose) (HPC)
  T/C: 105 % of control
[5]
  T/C: 93 % of control
dose: 200.0 mg/kg/injection, schedule: Q01DX009 (ip), vehicle: Klucel (hydroxypropylcellulose) (HPC)
  T/C: 92 % of control
[6]
  T/C: 97 % of control
dose: 400.0 mg/kg/injection, schedule: Q01DX009 (ip), vehicle: Klucel (hydroxypropylcellulose) (HPC)
  T/C: 95 % of control
[7]
  T/C: 101 % of control

## OC1C#CCCCCC(O)C#CCCCC1 (configuration not stated)
dose: 18.75 mg/kg/injection, schedule: Q01DX009 (ip), vehicle: saline
  T/C: 97 % of control
dose: 37.5 mg/kg/injection, schedule: Q01DX009 (ip), vehicle: saline
  T/C: 95 % of control
dose: 37.5 mg/kg/injection, schedule: Q04DX003 (ip), vehicle: acetone
  T/C: 100 % of control
dose: 75.0 mg/kg/injection, schedule: Q01DX009 (ip), vehicle: saline
  T/C: 97 % of control
dose: 75.0 mg/kg/injection, schedule: Q04DX003 (ip), vehicle: acetone
  T/C: 97 % of control
dose: 150.0 mg/kg/injection, schedule: Q04DX003 (ip), vehicle: acetone
  T/C: 92 % of control

## Cc1ccc(C)n1-c1ccc(S(=O)(=O)c2ccc(NC(=O)CCC(=O)O)cc2)cc1
dose: 100.0 mg/kg/injection, schedule: Q01DX009 (ip), vehicle: saline with Tween-80
  T/C: 93 % of control
dose: 200.0 mg/kg/injection, schedule: Q01DX009 (ip), vehicle: saline with Tween-80
  T/C: 88 % of control
dose: 400.0 mg/kg/injection, schedule: Q01DX009 (ip), vehicle: saline with Tween-80
  T/C: 96 % of control

## CCN(CCO)CC1C(c2ccccc2)C1c1ccccc1 (configuration not stated)
dose: 12.5 mg/kg/injection, schedule: Q04DX002 (ip), vehicle: Klucel (hydroxypropylcellulose) (HPC)
  T/C: 93 % of control
[2]
  T/C: 90 % of control
[3]
  T/C: 90 % of control

## [O-]/[N+](=C\c1ccccc1)c1ccc(Cl)cc1
[8]
  T/C: 96 % of control
[9]
  T/C: 95 % of control
dose: 300.0 mg/kg/injection, schedule: Q01DX001 (ip), vehicle: saline
  T/C: 91 % of control

## CC(=O)OCC1OC(n2cc(C)c(=O)[nH]c2=O)C(NC(=O)C(Cl)(Cl)Cl)C(OC(C)=O)C1OC(C)=O (configuration not stated)
dose: 50.0 mg/kg/injection, schedule: Q01DX001 (ip), vehicle: carboxymethylcellulose (CMC)
  T/C: 105 % of control
dose: 100.0 mg/kg/injection, schedule: Q01DX001 (ip), vehicle: carboxymethylcellulose (CMC)
  T/C: 96 % of control
dose: 200.0 mg/kg/injection, schedule: Q01DX001 (ip), vehicle: carboxymethylcellulose (CMC)
  T/C: 100 % of control
dose: 400.0 mg/kg/injection, schedule: Q01DX001 (ip), vehicle: carboxymethylcellulose (CMC)
  T/C: 103 % of control

## CC(C)C(C(=O)O)N(C)C(=O)c1cnc2ccccc2n1 (configuration not stated)
[10]
  T/C: 105 % of control
[11]
  T/C: 109 % of control
[12]
  T/C: 103 % of control

## O=C(Cc1ccc(CC(=O)NO)cc1)NO
[8]
  T/C: 100 % of control
[9]
  T/C: 96 % of control

## CC(=O)OC1(C[N+](=O)[O-])CCCCC1
dose: 50.0 mg/kg/injection, schedule: Q01DX001 (ip), vehicle: saline with Tween-80
  T/C: 93 % of control
dose: 100.0 mg/kg/injection, schedule: Q01DX001 (ip), vehicle: saline with Tween-80
  T/C: 101 % of control
dose: 200.0 mg/kg/injection, schedule: Q01DX001 (ip), vehicle: saline with Tween-80
  T/C: 101 % of control

## Nc1ncnc2c1ncn2CCC(O)c1ccccc1 (configuration not stated)
[13]
  T/C: 95 % of control
[10]
  T/C: 93 % of control
[11]
  T/C: 95 % of control
[12]
  T/C: 93 % of control

## Cc1ccc(NC(=O)Nc2ccc(S(N)(=O)=O)cc2)c([N+](=O)[O-])c1
[5]
  T/C: 88 % of control
[6]
  T/C: 89 % of control
[7]
  T/C: 88 % of control

## Cc1[nH]c2ccc(N=CN(C)C)cc2c1C
dose: 100.0 mg/kg/injection, schedule: Q04DX002 (ip), vehicle: saline with Tween-80
  T/C: 94 % of control

## CS(=O)(=O)OCCC(=O)N1CCN(C(=O)CCOS(C)(=O)=O)CC1
dose: 6.3 mg/kg/injection, schedule: Q01DX001 (ip), vehicle: carboxymethylcellulose (CMC)
  T/C: 100 % of control and 105 % of control
dose: 9.7 mg/kg/injection, schedule: Q01DX Z (ip), vehicle: methylcellulose (MC)
  T/C: 106 % of control
dose: 12.5 mg/kg/injection, schedule: Q01DX001 (ip), vehicle: carboxymethylcellulose (CMC)
  T/C: 103 % of control and 122 % of control
dose: 14.7 mg/kg/injection, schedule: Q01DX Z (ip), vehicle: methylcellulose (MC)
  T/C: 104 % of control
dose: 16.0 mg/kg/injection, schedule: Q01DX002 (ip), vehicle: saline
  T/C: 115 % of control
dose: 22.0 mg/kg/injection, schedule: Q01DX Z (ip), vehicle: methylcellulose (MC)
  T/C: 110 % of control and 112 % of control
dose: 25.0 mg/kg/injection, schedule: Q01DX001 (ip), vehicle: carboxymethylcellulose (CMC)
  T/C: 112 % of control and 115 % of control
dose: 25.0 mg/kg/injection, schedule: Q04DX003 (ip), vehicle: saline
  T/C: 108 % of control
dose: 31.0 mg/kg/injection, schedule: Q01DX002 (ip), vehicle: saline
  T/C: 105 % of control and 115 % of control
dose: 31.25 mg/kg/injection, schedule: Q01DX Z (ip), vehicle: methylcellulose (MC)
  T/C: 156 % of control
dose: 33.5 mg/kg/injection, schedule: Q01DX Z (ip), vehicle: methylcellulose (MC)
  T/C: 150 % of control
[13]
  T/C: 121 % of control
dose: 50.0 mg/kg/injection, schedule: Q04DX003 (ip), vehicle: saline
  T/C: 123 % of control
dose: 62.5 mg/kg/injection, schedule: Q01DX Z (ip), vehicle: methylcellulose (MC)
  T/C: 176 % of control
dose: 75.0 mg/kg/injection, schedule: Q01DX Z (ip), vehicle: methylcellulose (MC)
  T/C: 162 % of control
dose: 76.0 mg/kg/injection, schedule: Q01DX Z (ip), vehicle: methylcellulose (MC)
  T/C: 218 % of control
[1]
  T/C: 153 % of control and 195 % of control
dose: 170.0 mg/kg/injection, schedule: Q01DX Z (ip), vehicle: methylcellulose (MC)
  T/C: 103 % of control and 115 % of control
[11]
  T/C: 167 % of control
dose: 225.0 mg/kg/injection, schedule: Q01DX Z (ip), vehicle: methylcellulose (MC)
  T/C: 93 % of control
dose: 250.0 mg/kg/injection, schedule: Q01DX002 (ip), vehicle: saline
  T/C: 205 % of control and 240 % of control
[12]
  T/C: 213 % of control

## CCCCN(CCCl)C1c2ccccc2-c2ccccc21
[2]
  T/C: 106 % of control
[3]
  T/C: 95 % of control
